According to article PMC7522794, “Synthesis and evaluation of novel 2,4-disubstituted arylthiazoles against T. brucei” (RSC Medicinal Chemistry, 2019):
Where a name gives a salt, the structure may show the parent alone.

Tests used:
[1] = tested on: Bloodstream form T. brucei (strain 427); assay: Trypanocidal activity against bloodstream form T. brucei (Alamar Blue growth inhibition); type: cell-based, Trypanosoma brucei; conditions: 48 hours + overnight Alamar Blue; for IC50: concentration that inhibits growth by 50%; for IC90: concentration that inhibits growth by 90%
Procedure: Bloodstream form T. brucei (strain 427) were cultured at 37 °C in modified Iscove's medium. Trypanocidal activity was assessed by growing parasites in microtiter plates in the presence of various drug concentrations. […] The plates were incubated for 48 hours at 37 °C and 20 μL Alamar Blue was then added to each well. After an additional overnight incubation, the fluorescence was determined. Inhibition of growth was calculated by comparison with control values and IC50 and IC90 values were determined in triplicate using linear regression analysis.

[2] = Cytotoxic activity against rat skeletal myoblast L6 cells (Alamar Blue); type: cell-based; conditions: rat, L6 cells (rat skeletal muscle line); cytotoxicity, 6 days incubation + 8 hours Alamar Blue
Procedure: (§1) Cytotoxicity against mammalian cells was assessed using microtitre plates. Briefly, L6 cells (a rat skeletal muscle line) were seeded at 1 × 10^4 mL^–1 in 200 μL of growth medium containing 7 different compound concentrations in a range previously established to encompass both the IC50 and IC90 values. The plates were incubated for 6 days at 37 °C and 20 μL Alamar Blue (Biosource UK Ltd) was then added to each well. After an additional 8 hours incubation, the fluorescence was determined using a FLUOstar Omega fluorescent plate reader (BMG Labtech). Inhibition of growth was calculated by comparison with control values and IC50 and IC90 values were determined in triplicate using linear regression analysis.

[3] = tested on: L6 cells; assay: as above; type: cell-based; conditions: ratio of IC50 values obtained with L6 cells and T. brucei
Procedure: as §1

melting point | Molecule | IC50 ([1]; Trypanosoma brucei) [µM] | also measured
93 to 94 °C | OCCc1csc(-c2ccc(C34CC5CC(CC(C5)C3)C4)cc2)n1 [Compound 2g, 2-{2-[4-(1-Tricyclo[3.3.1.1^3,7]decyl)phenyl]thiazol-4-yl}ethan-1-ol] | ~10 | –
107 to 108 °C | O=C(NCCc1nc(-c2ccccc2)cs1)C12CC3CC(CC(C3)C1)C2 [Compound 4c, N-[2-(4-Phenylthiazol-2-yl)ethyl](1-tricyclo[3.3.1.1^3,7]decane)carboxamide] | 9.82 ± 0.22 | IC90 ([1]; Trypanosoma brucei): 13.1 ± 0.2 µM
302 °C (dec.) | CN(C)CCc1csc(-c2ccc(C34CC5CC(CC(C5)C3)C4)cc2)n1 (as salt: fumarate) [Compound 2c, 2-{2-[4-(1-Tricyclo[3.3.1.1^3,7]decyl)phenyl]thiazol-4-yl}-N,N-dimethylethan-1-amine] | – | –
221 to 223 °C | CNCCc1csc(-c2ccc(F)c(C34CC5CC(CC(C5)C3)C4)c2)n1 (as salt: hydrochloride) [Compound 1b, 2-{2-[3-(1-Tricyclo[3.3.1.1^3,7]decyl)-4-fluorophenyl]thiazol-4-yl}-N-methylethan-1-amine] | – | –
164 to 166 °C | CC(=O)NCCc1csc(-c2ccc(C34CC5CC(CC(C5)C3)C4)cc2)n1 (as salt: fumarate) [Compound 2d, N-{2-[2-(4-(1-Tricyclo[3.3.1.1^3,7]decyl)phenyl)thiazol-4-yl]ethyl}acetamide] | – | –
301 °C (dec.) | O=C(NCCc1csc(-c2ccc(F)c(C34CC5CC(CC(C5)C3)C4)c2)n1)N1CCCC1 (as salt: fumarate) [Compound 1i, N-(2-(2-(3-(1-Tricyclo[3.3.1.1^3,7]decyl)-4-fluorophenyl)thiazol-4-yl)ethyl)pyrrolidin-1-yl-carboxamide] | – | –
172 °C (dec.) | Br.NCc1nc(-c2ccc(C34CC5CC(CC(C5)C3)C4)cc2)cs1 [Compound 3b, 2-{4-[4-(1-Tricyclo[3.3.1.1^3,7]decyl)phenyl]thiazol-2-yl}methanamine difumarate] | 9.76 ± 0.77 | IC90 ([1]; Trypanosoma brucei): 12.8 ± 0.2 µM; IC50 [2]: 12.6 ± 0.9 µM
147 to 149 °C | CNCCc1csc(-c2ccc(C34CC5CC(CC(C5)C3)C4)cc2)n1 (as salt: fumarate) [Compound 2b, 2-{2-[4-(1-Tricyclo[3.3.1.1^3,7]decyl)phenyl]thiazol-4-yl}-N-methylethan-1-amine] | – | –
143 to 145 °C | CC(=O)NCCc1csc(-c2ccc(F)c(C34CC5CC(CC(C5)C3)C4)c2)n1 (as salt: fumarate) [Compound 1d, N-{2-[2-(3-(1-Tricyclo[3.3.1.1^3,7]decyl)-4-fluorophenyl]thiazol-4-yl]ethyl}acetamide] | – | –
226 to 227 °C | O=C(NCCc1csc(-c2ccc(F)c(C34CC5CC(CC(C5)C3)C4)c2)n1)c1ccc(F)cc1 (as salt: fumarate) [Compound 1g, N-{2-[2-(3-(1-Tricyclo[3.3.1.1^3,7]decyl)-4-fluorophenyl)thiazol-4-yl]ethyl}-4-fluorobenzamide] | – | –
305 °C (dec.) | O=C(NCCc1csc(-c2ccc(F)c(C34CC5CC(CC(C5)C3)C4)c2)n1)c1ccccc1 (as salt: fumarate) [Compound 1f, N-{2-[2-(3-(1-Tricyclo[3.3.1.1^3,7]decyl)-4-fluorophenyl)thiazol-4-yl]ethyl}benzamide] | – | –
225 °C (dec.) | NCCc1csc(-c2ccc(C34CC5CC(CC(C5)C3)C4)cc2)n1 (as salt: hydrochloride) [Compound 2a, 2-{2-[4-(1-Tricyclo[3.3.1.1^3,7]decyl)phenyl]thiazol-4-yl}ethan-1-amine] | – | –
291 to 293 °C | CCCC(=O)NCCc1csc(-c2ccc(F)c(C34CC5CC(CC(C5)C3)C4)c2)n1 (as salt: fumarate) [Compound 1e, N-{2-[2-(3-(1-Tricyclo[3.3.1.1^3,7]decyl)-4-fluorophenyl)thiazol-4-yl]ethyl}butylamide] | – | –
246 to 248 °C | NCCc1csc(-c2ccc(F)c(C34CC5CC(CC(C5)C3)C4)c2)n1 (as salt: hydrochloride) [Compound 1a, 2-{2-[3-(1-Tricyclo[3.3.1.1^3,7]decyl)-4-fluorophenyl]thiazol-4-yl}ethan-1-amine] | – | –
159 to 160 °C | N#CCc1csc(-c2ccc(C34CC5CC(CC(C5)C3)C4)cc2)n1 [Compound 2e, 2-{2-[4-(1-Tricyclo[3.3.1.1^3,7]decyl)phenyl]thiazol-4-yl}acetonitrile] | > 20 | –
169 to 170 °C | N#CSCc1csc(-c2ccc(C34CC5CC(CC(C5)C3)C4)cc2)n1 [Compound 2f, 2-[4-(1-Tricyclo[3.3.1.1^3,7]decyl)phenyl]-4-(thiocyanatemethyl)thiazole] | ~10 | –
280 to 282 °C | CN(C)CCc1csc(-c2ccc(F)c(C34CC5CC(CC(C5)C3)C4)c2)n1 (as salt: hydrochloride) [Compound 1c, 2-{2-[3-(1-Tricyclo[3.3.1.1^3,7]decyl)-4-fluorophenyl]thiazol-4-yl}-N,N-dimethylethyl-1-amine] | – | –
135 to 136 °C | O=C(NCCc1csc(-c2ccccc2)n1)C12CC3CC(CC(C3)C1)C2 [Compound 4a, N-(2-(2-Phenylthiazol-4-yl)ethyl)(1-tricyclo[3.3.1.1^3,7]decane)carboxamide] | 12.2 ± 0.8 | IC90 ([1]; Trypanosoma brucei): 18.7 ± 0.4 µM

The remaining lines, values behind:

Molecule | melting point | IC50 ([1]; Trypanosoma brucei) [µM] | also measured
O=C(NCCc1csc(-c2ccc(F)c(C34CC5CC(CC(C5)C3)C4)c2)n1)N1CCCCC1 [Compound 1j, N-{2-[2-(3-(1-Tricyclo[3.3.1.1^3,7]decyl)-4-fluorophenyl)thiazol-4-yl}ethyl)piperidine-1-yl-carboxamide] | – | 10.7 ± 0.3 | IC90 ([1]; Trypanosoma brucei): 12.6 ± 0.2 µM; IC50 [2]: < 10.3 µM; S.I. (selectivity index) [3]: <1
O=C(NCCc1csc(-c2ccc(F)c(C34CC5CC(CC(C5)C3)C4)c2)n1)c1ccc(F)cc1 [Compound 1g, N-{2-[2-(3-(1-Tricyclo[3.3.1.1^3,7]decyl)-4-fluorophenyl)thiazol-4-yl]ethyl}-4-fluorobenzamide] | – | > 20 | –
CN(C)CCc1csc(-c2ccc(C34CC5CC(CC(C5)C3)C4)cc2)n1 [Compound 2c, 2-{2-[4-(1-Tricyclo[3.3.1.1^3,7]decyl)phenyl]thiazol-4-yl}-N,N-dimethylethan-1-amine] | – | 1.27 ± 0.07 | IC90 ([1]; Trypanosoma brucei): 1.6 ± 0.22 µM
CC(=O)NCCc1csc(-c2ccc(F)c(C34CC5CC(CC(C5)C3)C4)c2)n1 [Compound 1d, N-{2-[2-(3-(1-Tricyclo[3.3.1.1^3,7]decyl)-4-fluorophenyl]thiazol-4-yl]ethyl}acetamide] | – | 15.3 ± 0.2 | IC90 ([1]; Trypanosoma brucei): 18.1 ± 0.2 µM
CNCCc1csc(-c2ccc(F)c(C34CC5CC(CC(C5)C3)C4)c2)n1 [Compound 1b, 2-{2-[3-(1-Tricyclo[3.3.1.1^3,7]decyl)-4-fluorophenyl]thiazol-4-yl}-N-methylethan-1-amine] | – | 0.9 ± 0.01 | IC90 ([1]; Trypanosoma brucei): 1.1 ± 0.01 µM; IC50 [2]: 2.01 ± 0.32 µM; S.I. (selectivity index) [3]: 2.2
CC(=O)NCCc1csc(-c2ccc(C34CC5CC(CC(C5)C3)C4)cc2)n1 [Compound 2d, N-{2-[2-(4-(1-Tricyclo[3.3.1.1^3,7]decyl)phenyl)thiazol-4-yl]ethyl}acetamide] | – | > 20 | –
[N-]=[N+]=NCCc1csc(-c2ccc(C34CC5CC(CC(C5)C3)C4)cc2)n1 [Compound 2h, 2-[4-(1-Tricyclo[3.3.1.1^3,7]decyl)phenyl]-4-(2-azidoethyl)thiazole] | – | > 20 | –
O=C(NCCc1csc(-c2ccc(F)c(C34CC5CC(CC(C5)C3)C4)c2)n1)N1CCCC1 [Compound 1i, N-(2-(2-(3-(1-Tricyclo[3.3.1.1^3,7]decyl)-4-fluorophenyl)thiazol-4-yl)ethyl)pyrrolidin-1-yl-carboxamide] | – | > 20 | –
1-{2-[4-(1-Tricyclo[3.3.1.1^3,7]decyl)phenyl]thiazol-4-yl}guanidine [Compound 3e] | – | – | IC50 [1]: ~10 µM
Cc1ccoc1C(=O)NCCc1csc(-c2ccc(F)c(C34CC5CC(CC(C5)C3)C4)c2)n1 [Compound 1h, N-{2-[2-(3-(1-Tricyclo[3.3.1.1^3,7]decyl)-4-fluorophenyl)thiazol-4-yl]ethyl}-3-methylfuran-2-ylcarboxamide] | – | > 20 | –
O=C(NCCc1csc(-c2ccc(F)c(C34CC5CC(CC(C5)C3)C4)c2)n1)c1ccccc1 [Compound 1f, N-{2-[2-(3-(1-Tricyclo[3.3.1.1^3,7]decyl)-4-fluorophenyl)thiazol-4-yl]ethyl}benzamide] | – | > 20 | –
CCCC(=O)NCCc1csc(-c2ccc(F)c(C34CC5CC(CC(C5)C3)C4)c2)n1 [Compound 1e, N-{2-[2-(3-(1-Tricyclo[3.3.1.1^3,7]decyl)-4-fluorophenyl)thiazol-4-yl]ethyl}butylamide] | – | > 25 | –
CC1(C)[C@@H]2CC[C@]1(CS(=O)(=O)NCCc1csc(-c3ccccc3)n1)C(=O)C2 [Compound 4b, 1-((1R,4R)-7,7-Dimethyl-2-oxobicyclo[2.2.1]hept-1-yl)-N-(2-(2-phenylthiazol-4-yl)ethyl)methanesulfonamide] | – | 20.6 ± 0.7 | IC90 ([1]; Trypanosoma brucei): 31.1 ± 0.3 µM
